Test results reported in the NIST ThermoML archive (doi:10.1016/j.jct.2017.06.001).

Experiment: xn = mol fraction of the nth substance listed
Details: 100 kPa, Liquid; for speed of sound: Frequency=5 MHz, Pulse-echo method; for mass density: Vibrating tube method

OCCCCCO [1,5-pentanediol] + O
Details	mass density [kg/m3]	speed of sound [m/s]
293.15 K, x1 = 0.005	997.92	–
293.15 K, x1 = 0.0101	997.99	–
293.15 K, x1 = 0.0196	998.58	–
293.15 K, x1 = 0.0251	999.15	–
293.15 K, x1 = 0.0304	999.8	–
293.15 K, x1 = 0.05	1001.74	–
293.15 K, x1 = 0.0769	1003.5	–
293.15 K, x1 = 0.1002	1004.72	–
293.15 K, x1 = 0.1438	1005.61	–
293.15 K, x1 = 0.1548	–	1691.8
293.15 K, x1 = 0.1602	–	1692.6
293.15 K, x1 = 0.1649	–	1693.2
293.15 K, x1 = 0.1671	–	1693.5
293.15 K, x1 = 0.1718	–	1694
293.15 K, x1 = 0.1738	–	1694.1
293.15 K, x1 = 0.1776	–	1694.5
293.15 K, x1 = 0.1807	–	1694.7
293.15 K, x1 = 0.1845	1005.62	–
293.15 K, x1 = 0.1846	–	1694.9
293.15 K, x1 = 0.1875	–	1695.1
293.15 K, x1 = 0.19	–	1695.2
293.15 K, x1 = 0.1941	–	1695.4
293.15 K, x1 = 0.1964	–	1695.5
293.15 K, x1 = 0.2006	–	1695.5
293.15 K, x1 = 0.2029	–	1695.6
293.15 K, x1 = 0.2051	–	1695.6
293.15 K, x1 = 0.2087	–	1695.7
293.15 K, x1 = 0.2114	–	1695.7
293.15 K, x1 = 0.2217	–	1695.6
293.15 K, x1 = 0.2315	–	1695.4
293.15 K, x1 = 0.2384	–	1695.2
293.15 K, x1 = 0.246	–	1695
293.15 K, x1 = 0.2503	1004.77	–
293.15 K, x1 = 0.2552	–	1694.6
293.15 K, x1 = 0.2648	–	1694.1
293.15 K, x1 = 0.2739	–	1693.7
293.15 K, x1 = 0.2857	–	1693
293.15 K, x1 = 0.2983	–	1692.1
293.15 K, x1 = 0.3	1003.78	–
293.15 K, x1 = 0.3133	–	1691.1
293.15 K, x1 = 0.3287	–	1689.9
293.15 K, x1 = 0.3343	1003.14	–
293.15 K, x1 = 0.3552	–	1687.7
293.15 K, x1 = 0.3729	–	1686.1
293.15 K, x1 = 0.4002	–	1683.5
293.15 K, x1 = 0.4171	1001.32	–
293.15 K, x1 = 0.4241	–	1681
293.15 K, x1 = 0.4527	–	1677.7
293.15 K, x1 = 0.454	1000.44	–
293.15 K, x1 = 0.478	–	1674.7
293.15 K, x1 = 0.5003	999.3	–
293.15 K, x1 = 0.5024	–	1671.6
293.15 K, x1 = 0.5266	–	1668.4
293.15 K, x1 = 0.5362	998.5	–
293.15 K, x1 = 0.5491	–	1665.3
293.15 K, x1 = 0.5701	–	1662.4
293.15 K, x1 = 0.5912	–	1659.4
293.15 K, x1 = 0.6123	–	1656.4
293.15 K, x1 = 0.6177	996.9	–
293.15 K, x1 = 0.631	–	1653.7
293.15 K, x1 = 0.6478	996.3	–
293.15 K, x1 = 0.656	–	1650.2
293.15 K, x1 = 0.6746	–	1647.5
293.15 K, x1 = 0.6953	–	1644.6
293.15 K, x1 = 0.7025	995.2	–
293.15 K, x1 = 0.7147	–	1641.9
293.15 K, x1 = 0.7344	–	1639.1
293.15 K, x1 = 0.7504	994.4	–
293.15 K, x1 = 0.7546	–	1636.4
293.15 K, x1 = 0.7797	–	1633
293.15 K, x1 = 0.7927	993.6	–
293.15 K, x1 = 0.8014	–	1630.2
293.15 K, x1 = 0.8265	–	1627
293.15 K, x1 = 0.8497	–	1624.1
293.15 K, x1 = 0.8605	992.3	–
293.15 K, x1 = 0.8696	–	1621.6
293.15 K, x1 = 0.9004	991.5	–
293.15 K, x1 = 0.9029	–	1617.5
293.15 K, x1 = 0.9198	–	1615.4
293.15 K, x1 = 0.9259	–	1614.7
293.15 K, x1 = 0.9367	–	1613.3
293.15 K, x1 = 0.9484	–	1611.8
293.15 K, x1 = 0.9496	990.4	–
293.15 K, x1 = 0.9601	–	1610.3
293.15 K, x1 = 0.97	–	1609.1
293.15 K, x1 = 0.9804	–	1607.7
293.15 K, x1 = 0.9884	–	1606.6
293.15 K, x1 = 0.9943	–	1605.8
293.15 K, x1 = 1	989.3	1605
298.15 K, x1 = 0.0002	–	1497.3
298.15 K, x1 = 0.0006	–	1498.9
298.15 K, x1 = 0.0012	–	1501.2
298.15 K, x1 = 0.0018	–	1503.4
298.15 K, x1 = 0.0026	–	1506.3
298.15 K, x1 = 0.004	–	1511.1
298.15 K, x1 = 0.0054	–	1515.9
298.15 K, x1 = 0.0067	–	1520.1
298.15 K, x1 = 0.0083	–	1525.4
298.15 K, x1 = 0.0097	–	1529.9
298.15 K, x1 = 0.0113	–	1534.7
298.15 K, x1 = 0.0123	–	1537.8
298.15 K, x1 = 0.0138	–	1542.2
298.15 K, x1 = 0.0153	–	1546.5
298.15 K, x1 = 0.0168	–	1550.8
298.15 K, x1 = 0.0184	–	1555.2
298.15 K, x1 = 0.0195	–	1558
298.15 K, x1 = 0.0205	–	1560.8
298.15 K, x1 = 0.0221	–	1564.7
298.15 K, x1 = 0.0243	–	1570.1
298.15 K, x1 = 0.0264	–	1575.3
298.15 K, x1 = 0.0287	–	1580.3
298.15 K, x1 = 0.0308	–	1584.9
298.15 K, x1 = 0.0326	–	1588.7
298.15 K, x1 = 0.0347	–	1593
298.15 K, x1 = 0.0362	–	1596.1
298.15 K, x1 = 0.0378	–	1599.1
298.15 K, x1 = 0.0396	–	1602.6
298.15 K, x1 = 0.0414	–	1605.7
298.15 K, x1 = 0.0432	–	1608.9
298.15 K, x1 = 0.045	–	1612
298.15 K, x1 = 0.0465	–	1614.4
298.15 K, x1 = 0.0484	–	1617.3
298.15 K, x1 = 0.0503	–	1620.2
298.15 K, x1 = 0.0523	–	1623.2
298.15 K, x1 = 0.0539	–	1625.4
298.15 K, x1 = 0.0554	–	1627.5
298.15 K, x1 = 0.057	–	1629.7
298.15 K, x1 = 0.0588	–	1631.9
298.15 K, x1 = 0.0607	–	1634.3
298.15 K, x1 = 0.0624	–	1636.4
298.15 K, x1 = 0.0647	–	1639
298.15 K, x1 = 0.0672	–	1641.8
298.15 K, x1 = 0.0698	–	1644.5
298.15 K, x1 = 0.0724	–	1647.1
298.15 K, x1 = 0.0743	–	1648.9
298.15 K, x1 = 0.0774	–	1651.7
298.15 K, x1 = 0.0814	–	1655.1
298.15 K, x1 = 0.0847	–	1657.7
298.15 K, x1 = 0.0877	–	1659.9
298.15 K, x1 = 0.0907	–	1661.9
298.15 K, x1 = 0.0941	–	1664.1
298.15 K, x1 = 0.0968	–	1665.7
298.15 K, x1 = 0.0975	–	1666.1
298.15 K, x1 = 0.1007	–	1667.9
298.15 K, x1 = 0.1013	–	1668.2
298.15 K, x1 = 0.1045	–	1669.8
298.15 K, x1 = 0.1057	–	1670.4
298.15 K, x1 = 0.108	–	1671.4
298.15 K, x1 = 0.1105	–	1672.6
298.15 K, x1 = 0.1112	–	1672.8
298.15 K, x1 = 0.1142	–	1674
298.15 K, x1 = 0.1158	–	1674.7
298.15 K, x1 = 0.1173	–	1675.2
298.15 K, x1 = 0.1201	–	1676.2
298.15 K, x1 = 0.1217	–	1676.7
298.15 K, x1 = 0.1233	–	1677.2
298.15 K, x1 = 0.1262	–	1678.1
